Measurements taken from article PMC12183826, “Structure-based design and evaluation of tyrosinase inhibitors targeting both human and mushroom isozymes” (RSC Medicinal Chemistry, 2025).
Read-outs that look alike come from different tables or passages of the source.

Key:
[1] = ABTS radical scavenging assay; settings: read-out: Antioxidant activity EC50 (ABTS)
Protocol: Therefore, we conducted a preliminary assessment of the antioxidant activity of all synthesized target compounds by evaluating their ABTS radical scavenging capacity. The ABTS assay is widely recognized as one of the most reliable methods for measuring antioxidants' ability to neutralize the stable ABTS˙^+ radical cation.
The overall free radical-scavenging capacity of the compounds was evaluated using the ABTS [2,20-azinobis-(3-ethylbenzothiazoline-6-sulfonic acid)] assay according to previously described methods.[45] The method relies on the capacity of antioxidants to scavenge the ABTS˙^+ radical. To generate ABTS˙^+, a 7 mM ABTS solution was mixed with 2.45 mM potassium persulfate in water, and the mixture was incubated in the dark at room temperature for 24 h. Subsequently, 10 μL of sample at varying concentrations was added to 990 μL of the diluted ABTS˙^+ solution. After 1 min of reaction at room temperature, the absorbance was recorded at 734 nm. The reference antioxidant used was 6-hydroxy-2,5,7,8-tetramethylchromane-2-carboxylic acid (Trolox). Antioxidant activity was quantified as EC50, which represents the concentration of compound needed to reduce the initial absorbance by 50%.

[2] = biological target: Agaricus bisporus tyrosinase (AbTYR); assay: AbTYR inhibition assay; format: biochemical
From the text: (§1) No. T3824). Kojic acid was employed as a positive standard. The intramelanosomal domain of hTYR was expressed and purified as previously reported in the literature.[46] The reference compound Thiamidol was purchased from BLDpharm (Shanghai, China).

human tyrosinase (hTYR) [3] = biological target: T1, human tyrosinase (hTYR) (Homo sapiens, UniProt P14679); assay: hTYR inhibition assay; format: biochemical
T1 construct: The intramelanosomal domain of hTYR was expressed and purified; made in house
T1 sequence (P14679 19-476 limits assumed): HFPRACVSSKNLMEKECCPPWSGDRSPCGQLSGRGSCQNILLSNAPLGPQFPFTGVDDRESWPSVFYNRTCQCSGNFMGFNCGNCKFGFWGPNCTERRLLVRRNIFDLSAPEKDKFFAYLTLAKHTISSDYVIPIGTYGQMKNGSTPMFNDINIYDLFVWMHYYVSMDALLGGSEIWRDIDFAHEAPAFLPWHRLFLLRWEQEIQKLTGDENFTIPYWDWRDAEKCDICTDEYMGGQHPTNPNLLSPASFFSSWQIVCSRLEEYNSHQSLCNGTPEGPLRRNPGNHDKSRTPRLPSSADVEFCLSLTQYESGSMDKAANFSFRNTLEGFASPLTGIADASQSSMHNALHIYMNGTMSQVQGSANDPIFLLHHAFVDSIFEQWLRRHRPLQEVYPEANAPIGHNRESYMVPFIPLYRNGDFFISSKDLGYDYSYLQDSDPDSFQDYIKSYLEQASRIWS
From the text: as §1

MTT cell viability = format: cell-based; settings: human, HaCaT keratinocyte cells
Protocol: Based on the inhibitory effects on hTYR and antioxidant properties on the ABTS assay, we focused our attention on compounds 2 and 3, which were further characterized as skin protective agents. In more detail, we evaluated their ability to influence the viability of human skin keratinocyte cell line HaCaT at distinct concentrations ranging from 5 to 50 μM (Fig. 6). […] Cell viability remained above 87% in compound 2 for all concentrations tested.
The 3-(4,5-dimethylthiazol-2-yl)-2,5-diphenyltetrazolium bromide (MTT) technique on human skin keratinocyte cell line (HaCaT; CLS-Cell Lines Service, Eppelheim, Germany) was employed to assess cell viability as reported by Pintus et al.[47] The cells were exposed to the compounds at concentrations ranging from […] for a duration of 24 h. Afterward, MTT reagent was added to each well, followed by incubation at 37 °C for 3 h. Following incubation, the MTT solution was removed from the culture plate, and 100 μL of DMSO solvent was added to dissolve the water-insoluble formazan crystals formed in the cells. The absorbance was then measured at 570 nm using a microplate reader (VANTAstar_BMG LABTECH GmbH, Offenburg, Germany).

HaCaT cells = assay: Intracellular ROS levels (DCFH-DA), H2O2-induced; format: cell-based, human; settings: 5–50 μM, 2 mM H2O2
Protocol: To further confirm their antioxidant capacity, we carried out an antioxidant assay in the skin keratinocyte cell line HaCaT. The levels of ROS were measured before and after exposure to H2O2-induced oxidative stress and after treatment with compounds 2 and 3 at various concentrations (5–50 μM).
Cellular ROS levels were measured using the 2′,7′-dichlorofluorescein diacetate (DCFH-DA) method.[48] HaCat cells were exposed to different concentrations of the test compounds, and after 24 h, cells were incubated with DCFH-DA (10 μM) at 37 °C for 30 min and then treated with 2 mM H2O2. The fluorescence intensity of DCF was immediately measured with a fluorescence plate reader (VANTAstar_BMGLABTECH GmbH, Offenburg, Germany).

[4] = Relative lipophilicity by RP-TLC; format: physicochemical; settings: RP-TLC C18, acetone:water 2:1
Protocol: Based on the consideration that the lipophilicity of an active molecule exerts a relevant role in skin penetration as well as in the process of crossing the cell membrane, we chose to experimentally estimate the relative lipophilicity of the synthesized compounds 1–5. We employed reverse-phase thin layer chromatography (RP-TLC); the retardation coefficients (RFs) were measured from the chromatograms, thus generating the RM values as an estimation of the relative lipophilicity among the homogenous series of the studied compounds 1–5 in comparison with MehT-3. The Experimental procedure (4.3 Lipophilicity) contains a detailed description of the applied methods.
Experimental relative lipophilicity was determined by employing reversed phase TLC on 20 cm × 20 cm plates coated with C18 silica. The eluant was prepared by mixing acetone and water (2 : 1 (v/v)). The studied compounds and reference substances were dissolved in MeOH to obtain the working solution with a concentration of 2.0 mg mL^−1. Then, we activated the plates by heating at 105 °C for 1 h. From each working solution, a volume of 0.2 μL was spotted to the plates. The measurements were repeated three times with distinct disposition of the compounds on the plate, so that RF values represented the mean values obtained in triplicate. The chromatograms were developed at a distance of 10 cm from the origin in ascending TLC chambers at room temperature. Then, the spots of the substances were visualized by means of a UV lamp at 254 nm. Based on the retardation coefficients (RF) we calculated the relative lipophilicity RM values according to the formula RM = log[(1/RF) − 1];[44] higher RM values predict a higher lipophilicity.

[5] = system: Agaricus bisporus tyrosinase (AbTYR); parameters: method as in PMID 37657271, PMID 36093940; settings: cited from earlier work
human tyrosinase (hTYR) [6] = biological target: T1, human tyrosinase (hTYR); settings: cited from earlier work
[7] = parameters: method as in PMID 36675192; settings: positive control; read-out: Antioxidant activity EC50 (ABTS); cited from earlier work

| Compound | EC50 [1] | IC50 [2] | IC50 (human tyrosinase (hTYR) [3]) | RM (relative lipophilicity) [4] | also measured |
| --- | --- | --- | --- | --- | --- |
| O=C(O)c1ccccc1C(=O)N1CCN(c2ccc(O)cc2)CC1 [Compound 1, 2-[4-(4-hydroxyphenyl)piperazine-1-carbonyl]benzoic acid] | 17.1 ± 0.7 µM | 40.7 ± 3.19 µM | 15.4 ± 1.2 µM |  |  |
| CC(=O)N1CCN(c2ccc(O)cc2)CC1 [Compound 3, 1-[4-(4-hydroxyphenyl)piperazin-1-yl]ethan-1-one] | 14 ± 0.9 µM | 31.8 ± 3.37 µM | 5.3 ± 0.9 µM |  | viability at 24 h, 50 µM (MTT cell viability; 50 μM): 75%; H2O2-induced ROS production (HaCaT cells): decreased the production of ROS induced by hydrogen peroxide in a dose-dependent manner |
| COc1ccccc1C(=O)N1CCN(c2ccc(O)cc2)CC1 [MehT-3, [4-(4-hydroxyphenyl)piperazin-1-yl](2-methoxyphenyl)methanone] |  |  |  | −0.17 | Mode of inhibition of AbTYR (kinetic analyses) [5]: competitive inhibitor; IC50 ([5]; reference compound): 3.52 ± 0.25 µM; Mode of inhibition of hTYR (kinetic analyses) (human tyrosinase (hTYR) [6]): competitive inhibitor |
| Cc1c(C)c2c(c(C)c1O)CCC(C)(C(=O)O)O2 (centres unmarked) [Trolox, 6-hydroxy-2,5,7,8-tetramethylchromane-2-carboxylic acid] |  |  |  |  | EC50 [7]: 13 ± 1.1 µM |

Continued, in another order:

| EC50 [1] | IC50 [2] | IC50 (human tyrosinase (hTYR) [3]) | RM (relative lipophilicity) [4] | Compound | also measured |
| --- | --- | --- | --- | --- | --- |
| 9.5 ± 0.2 µM | 13.2 ± 2.24 µM | 7.8 ± 0.8 µM | −0.60 | O=C(c1ccc(=O)[nH]c1)N1CCN(c2ccc(O)cc2)CC1 [Compound 2, 5-[4-(4-hydroxyphenyl)piperazine-1-carbonyl]pyridin-2(1H)-one] | viability at 24 h (MTT cell viability; all concentrations tested (5 to 50 μM)): > 87%; H2O2-induced ROS production (HaCaT cells): decreased the production of ROS induced by hydrogen peroxide in a dose-dependent manner |
| 10.8 ± 0.3 µM | 8.74 ± 0.36 µM | 24.1 ± 3.3 µM |  | CCC(=O)N1CCN(c2ccc(O)cc2)CC1 [Compound 4, 1-[4-(4-hydroxyphenyl)piperazin-1-yl]propan-1-one] |  |
| 10.4 ± 0.1 µM | 4 ± 0.25 µM | 27.2 ± 6.2 µM | −0.65 | CC(=O)NCC(=O)N1CCN(c2ccc(O)cc2)CC1 [Compound 5, N-[2-[4-(4-hydroxyphenyl)piperazin-1-yl]-2-oxoethyl]acetamide] |  |
